Assay results published in ChEMBL document CHEMBL1133475, “Inhibitors of NF-kappaB and AP-1 gene expression: SAR studies on the pyrimidine portion of 2-chloro-4-trifluoromethylpyrimidine-5-[N-(3', 5'-bis(trifluoromethyl)phenyl)carboxamide]” (J Med Chem, 2000).

Species: Homo sapiens
Test: Compound was tested for permeability in Caco-2 cells by HPLC method
Assay type: ADME, cell-based

**Q.** Which Permeability does the source give for `O=C(Nc1cc(C(F)(F)F)cc(C(F)(F)F)c1)c1cnc(Cl)nc1` here?
**A.** 6.1 ×10⁻⁶ cm/s

**Q.** Which Permeability does the source give for `O=C(Nc1cc(C(F)(F)F)cc(C(F)(F)F)c1)c1cnc(Cl)nc1-c1ccccc1` here?
**A.** 0.9 ×10⁻⁶ cm/s

**Q.** With `CCCc1nc(Cl)ncc1C(=O)Nc1cc(C(F)(F)F)cc(C(F)(F)F)c1` as the compound, how does the Permeability read?
**A.** 3.1 ×10⁻⁶ cm/s

**Q.** For `O=C(Nc1cc(C(F)(F)F)cc(C(F)(F)F)c1)c1cnc(F)nc1C(F)(F)F`, which Permeability is on record?
**A.** 1.9 ×10⁻⁶ cm/s

**Q.** Which Permeability does the source give for `O=C(Nc1cc(C(F)(F)F)cc(C(F)(F)F)c1)c1cnc(Cl)nc1C(F)(F)C(F)(F)F` here?
**A.** 0.9 ×10⁻⁶ cm/s

**Q.** How did the Permeability turn out when `O=C(Nc1cc(C(F)(F)F)cc(C(F)(F)F)c1)c1cnc(Cl)nc1C(F)(F)F` was run?
**A.** 1.1 ×10⁻⁶ cm/s

**Q.** With `O=C(Nc1cc(C(F)(F)F)cc(C(F)(F)F)c1)c1cnc(Cl)nc1-c1cccs1` as the compound, how does the Permeability read?
**A.** 2.1 ×10⁻⁶ cm/s

**Q.** `Cc1nc(Cl)ncc1C(=O)Nc1cc(C(F)(F)F)cc(C(F)(F)F)c1` was tested. Which Permeability did it give?
**A.** 6.2 ×10⁻⁶ cm/s

**Q.** With `O=C(Nc1cc(C(F)(F)F)cc(C(F)(F)F)c1)c1cnc(Cl)nc1Cl` as the compound, how does the Permeability read?
**A.** 3.1 ×10⁻⁶ cm/s

**Q.** How did the Permeability turn out when `CCc1nc(Cl)ncc1C(=O)Nc1cc(C(F)(F)F)cc(C(F)(F)F)c1` was run?
**A.** 5.8 ×10⁻⁶ cm/s
